Reference: patent US20240002425A1, “NOVEL AMINOALKYL GLUCOSAMINIDE 4-PHOSPHATE DERIVATIVE” (DAIICHI SANKYO COMPANY, LIMITED, priority 2020, published 2024)

Tested on: binding between RBD and hACE2
Conditions: in vivo

CCCCCCCCCCC[C@H](CC(=O)N[C@@H](CO[C@@H]1O[C@H](CO[C@]2(C(=O)O)C[C@@H](O)[C@@H](O)[C@@H]([C@H](O)CO)O2)[C@@H](OP(=O)(O)O)[C@H](OC(=O)C[C@@H](CCCCCCCCCCC)OC(=O)CCCCCCCCC)[C@H]1NC(=O)C[C@@H](CCCCCCCCCCC)OC(=O)CCCCCCCCC)CC(=O)O)OC(=O)CCCCCCCCC [Example 2(2e), Ammonium (3R)-3-{[(3R)-3-(decanoyloxy)tetradecanoyl]amino}-4-({3-O-[(3R)-3-(decanoyloxy)tetradecanoyl]-2-{[(3R)-3-(decanoyloxy)tetradecanoyl]amino}-2-deoxy-6-O-(3-deoxy-α-D-manno-oct-2-ulopyranonosyl)-4-O-phosphono-β-D-glucopyranosyl}oxy)butanoate]
inhibition of binding between RBD and hACE2 by nasal wash: inhibited the binding between RBD and hACE2
